Test results: PMC6766655, “AhR–ROR-γt complex is a therapeutic target for MAP4K3/GLK^highIL-17A^high subpopulation of systemic lupus erythematosus” (The FASEB Journal, 2019)

Experiments:
[1] = target: T1, HPK1 (MAP4K1) (Homo sapiens, UniProt Q92918); assay: In vitro kinase assay, myelin basic protein as substrate (ADP-Glo); assay type: biochemical; conditions: recombinant kinase domain
T1 construct: Recombinant proteins of kinase domains of various MAP4Ks were used; purchased Promega
T1 sequence (Q92918 17-274 limits assumed): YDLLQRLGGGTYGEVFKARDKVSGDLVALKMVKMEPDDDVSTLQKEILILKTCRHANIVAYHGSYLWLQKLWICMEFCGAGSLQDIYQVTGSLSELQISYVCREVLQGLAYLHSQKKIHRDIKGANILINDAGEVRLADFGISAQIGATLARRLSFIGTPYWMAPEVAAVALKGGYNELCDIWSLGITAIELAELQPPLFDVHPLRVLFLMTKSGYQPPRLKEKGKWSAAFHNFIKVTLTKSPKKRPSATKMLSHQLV

[2] = target: T2, GCK (MAP4K2) (Homo sapiens, UniProt Q12851); assay: as above; assay type: biochemical; conditions: recombinant kinase domain
T2 construct: Recombinant proteins of kinase domains of various MAP4Ks were used; purchased Promega
T2 sequence (Q12851 16-273 limits assumed): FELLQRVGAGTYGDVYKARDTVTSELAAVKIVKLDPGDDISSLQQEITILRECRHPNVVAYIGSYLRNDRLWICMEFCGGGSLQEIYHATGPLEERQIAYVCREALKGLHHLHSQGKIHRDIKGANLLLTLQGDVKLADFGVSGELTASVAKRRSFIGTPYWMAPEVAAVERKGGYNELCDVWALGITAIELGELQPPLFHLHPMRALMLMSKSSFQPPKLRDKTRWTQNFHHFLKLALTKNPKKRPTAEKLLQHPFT

[3] = tested on: EAE mice; assay: MOG-induced EAE in wild-type C57BL/6J mice; assay type: in vivo; conditions: 0.4 μg/g body weight i.v. every 3 d
[4] = tested on: human peripheral blood T cells; assay: ELISA of cytokines in supernatants of anti-CD3/CD28-stimulated human peripheral blood T cells; assay type: cell-based; conditions: for inhibition of IL-17A: 1 μM
Source text: Primary human T cells were freshly isolated and negatively selected from the PBLs of clinical samples using a cocktail of biotin-conjugated anti-CD19, anti-CD14, and anti-CD11b antibodies (BioLegend) on a magnetic cell separation column (Miltenyi Biotec, Bergisch Gladbach, Germany) ([26]). In addition, primary murine T cells were negatively selected from the spleens of mice using magnetically coupled antibodies against CD11b, B220, CD49b, CD235, and TER-119 (Miltenyi Biotec) ([18]).
We further studied whether IL-17A production is abolished by verteporfin in human and murine T cells. We first tested the inhibitory effect of verteporfin in murine T cells stimulated with T-cell receptor (TCR) signaling (anti-CD3 plus anti-CD28 antibodies). […] This reduction is likely due to the inhibition of NF-κB activation ([18]) by the verteporfin treatment. This notion is supported by our published results that TCR-induced TNF-α and IFN-γ levels in T cells are inhibited by IKK-β conditional knockout ([18]). Next, we studied whether verteporfin attenuates IL-17A production using human peripheral blood T cells with stimulation. The levels of T-cell–secreted IL-17A in unstimulated T cells from patients with SLE and RA were enhanced compared with those from healthy controls (Fig. 5B). […] GLK overexpression in T cells selectively induces IL-17A production in Lck-GLK Tg mice ([18]). […] The inhibition of the production of other cytokines by the high-dose but not low-dose verteporfin treatment may be due to a requirement of higher concentration of verteporfin for an efficient inhibition of NF-κB activation.
Figure 5 Verteporfin (C1) blocks IL-17 production of human T cells. A) ELISA of various cytokines in supernatants of murine primary T cells stimulated with anti-CD3 or CD28 and cotreated with C1 (5 or 10 μM) for 3 d. Means ± SD are shown; n = 3/group. B) ELISA of various cytokines in supernatants of human T cells. T cells were stimulated with anti-CD3 or CD28 and cotreated with C1 (1 or 5 μM) for 3 d. HC, healthy control; N.S., not significant. Means ± SD are shown. *P < 0.05, **P < 0.01, ***P < 0.001 (2-tailed Student’s t test).
Supplementary Figure 6. Inhibition of IL-17A overproduction by verteporfin in inflammatory T cells from SLE or RA patients. (A) ELISA of various cytokines in supernatants of T cells from RA patients. T cells were stimulated with anti-CD3/CD28 and co-treated with verteporfin (C1) (1 or 5 μM) for 3 days. Means ± SD are shown. (B) The inhibition (%) of IL-17A by the 1 μM verteporfin (C1) treatment in SLE or RA patients was compared to that of healthy controls (HC). Means ± SEM of are shown. HC, healthy controls; SLE, systemic lupus erythematosus; RA, rheumatoid arthritis.

[5] = tested on: murine primary T cells; assay: Cell death of murine primary T cells (Fixable Viability Stain 780, flow cytometry); assay type: cell-based; conditions: 1 or 5 μM for 3 d, anti-CD3/CD28 stimulated
Method: Supplementary Figure 4. […] Murine primary T cells were stimulated with anti-CD3/CD28 and co-treated with verteporfin (C1) (1 or 5 μM) for 3 days. Dead T cells were labeled with Fixable Viability Stain 780 (FVS 780; BD Biosciences) and then determined by flow cytometry. Data shown are representatives of four independent experiments.

[6] = tested on: Th17 differentiation; assay: In vitro Th17 differentiation of splenic T cells (flow cytometry of IL-17A-producing CD4+ T cells); assay type: cell-based, murine; conditions: 1 or 5 μM during differentiation, 3 days
Method: (§1) Supplementary Figure 5. Verteporfin inhibits both Th17 differentiation and IL-17A production from in vitro differentiated Th17 cells. (A) Flow cytometry of IL-17A-producing CD4^+ T cells. Splenic T cells were co-treated with verteporfin (C1) (1 or 5 μM) during Th17 differentiation in vitro (for 3 days). (B) Flow cytometry of IL-17A-producing CD4^+ T cells. Murine in vitro differentiated Th17 cells were stimulated with PMA plus ionomycin and co-treated with verteporfin (C1) (1 or 5 μM) for 30 min. Data shown are representatives of two independent experiments.

[7] = tested on: in vitro differentiated Th17 cells; assay: IL-17A production of in vitro differentiated Th17 cells stimulated with PMA plus ionomycin (flow cytometry); assay type: cell-based, murine; conditions: 1 or 5 μM for 30 min
Method: as §1

verteporfin
IC50 [1]: 7.91 nM | IC50 [2]: 10.3 nM | disease severity (clinical score), EAE [3]: significantly suppressed | serum levels of IL-6, TNF-α, IFN-γ, and IL-4, EAE [3]: not significantly decreased | serum IL-17A levels, EAE ([3]; day 16): significantly suppressed | inhibition of IL-17A ([4]; T cells of healthy controls): ~48% | inhibition of IL-17A ([4]; T cells of patients with SLE or RA): ~75% | IL-17A production ([4]; T cells from patients with SLE and RA and healthy controls, 1 or 5 μM for 3 d): significantly reduced | production of IL-17A, IL-6, IL-10, TNF-α, and IFN-γ ([4]; high-dose 5 μM, T cells of healthy controls and patients with SLE): significantly inhibited | production of IL-6, IL-10, TNF-α, and IFN-γ ([4]; low-dose 1 μM, T cells from patients with SLE or RA): modestly inhibited | cell death of murine primary T cells [5]: did not enhance cell death | cell death of murine primary T cells ([5]; listed as Verteporfin): does not induce cell death | Th17 differentiation [6]: inhibited | Th17 differentiation ([6]; listed as Verteporfin): inhibits | IL-17A production from in vitro differentiated Th17 cells [7]: inhibited | IL-17A production from in vitro differentiated Th17 cells ([7]; listed as Verteporfin): inhibits
